Results on seven compounds are retold here after ChEMBL document CHEMBL3351747, “Structure-based design of β1i or β5i specific inhibitors of human immunoproteasomes” (J Med Chem, 2014).

Test [1] can be described thus: Inhibition of 20s proteasome subunit beta-5c in human RPMI8226 cells using BODIPY-NC005 by fluorescent densitometry. The settings on record: rpmi-8226. The class given is cell-based.
A short description of test [2]: Inhibition of 20s proteasome subunit beta-5c in human Raji cells using BODIPY-NC005 by fluorescent densitometry. In kind it is cell-based.
Test [3] has as its target T1, Proteasome subunit beta type-10 (Homo sapiens, UniProt P40306).
T1 sequence (P40306 whole entry): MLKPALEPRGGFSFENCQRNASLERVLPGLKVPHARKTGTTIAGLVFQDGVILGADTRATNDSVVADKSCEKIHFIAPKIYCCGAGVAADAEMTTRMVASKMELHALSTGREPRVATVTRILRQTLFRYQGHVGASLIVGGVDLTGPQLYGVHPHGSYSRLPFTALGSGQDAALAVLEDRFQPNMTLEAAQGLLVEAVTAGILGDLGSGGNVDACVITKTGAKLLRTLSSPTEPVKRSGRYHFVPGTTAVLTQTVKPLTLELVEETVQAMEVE
The experiment in a line: Inhibition of proteasome subunit beta-2i in human RPMI8226 cells using BODIPY-epoxomicin by fluorescent densitometry. In kind it is cell-based, RPMI-8226.

Test [4] in a line: Inhibition of 20s proteasome subunit beta-2c in human RPMI8226 cells using BODIPY-epoxomicin by fluorescent densitometry. The settings on record: rpmi-8226. In kind it is cell-based.
The target of test [5] is T2, Proteasome subunit beta type-8 (Homo sapiens, UniProt P28062).
T2 sequence (P28062 whole entry): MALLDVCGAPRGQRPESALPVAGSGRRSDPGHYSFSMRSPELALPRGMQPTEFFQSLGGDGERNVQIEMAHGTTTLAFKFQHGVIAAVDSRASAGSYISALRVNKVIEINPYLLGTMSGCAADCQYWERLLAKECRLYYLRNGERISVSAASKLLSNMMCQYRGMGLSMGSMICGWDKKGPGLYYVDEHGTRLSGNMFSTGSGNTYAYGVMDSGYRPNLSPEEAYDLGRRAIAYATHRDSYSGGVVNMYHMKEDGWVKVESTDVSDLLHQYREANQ
In words: Inhibition of proteasome subunit beta-5i in human RPMI8226 cells using BODIPY-NC005 by fluorescent densitometry. In kind it is cell-based, RPMI-8226.

Test [6] concerns the target T2, Proteasome subunit beta type-8. In words: Inhibition of proteasome subunit beta-5i in human Raji cells using BODIPY-NC005 by fluorescent densitometry. In kind it is cell-based.
In test [7] the target is T3, Proteasome subunit beta type-9 (Homo sapiens, UniProt P28065).
T3 sequence (P28065 whole entry): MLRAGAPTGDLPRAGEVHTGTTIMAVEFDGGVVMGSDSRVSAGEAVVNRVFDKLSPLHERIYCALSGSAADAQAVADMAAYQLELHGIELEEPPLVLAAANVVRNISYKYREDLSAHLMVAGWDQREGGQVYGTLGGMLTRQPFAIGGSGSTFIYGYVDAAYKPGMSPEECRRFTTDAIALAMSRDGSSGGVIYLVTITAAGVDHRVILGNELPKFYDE
The experiment in a line: Inhibition of proteasome subunit beta-1i in human Raji cells using BODIPY- epoxomicin by fluorescent densitometry. In kind it is cell-based.

The target of test [8] is T3, Proteasome subunit beta type-9. The experiment in a line: Inhibition of proteasome subunit beta-1i in human RPMI8226 cells using BODIPY-NC001 by fluorescent densitometry. In kind it is cell-based, RPMI-8226.
Test [9] is described as follows: Inhibition of 20s proteasome subunit beta-1c in human RPMI8226 cells using BODIPY-NC001 by fluorescent densitometry. The class given is cell-based. The settings on record: rpmi-8226.
Test [10] is described as follows: Inhibition of 20s proteasome subunit beta-2c in human Raji cells using BODIPY- epoxomicin by fluorescent densitometry. The class given is cell-based.
In test [11] the target is T1, Proteasome subunit beta type-10. The experiment in a line: Inhibition of proteasome subunit beta-2i in human Raji cells using BODIPY- epoxomicin by fluorescent densitometry. In kind it is cell-based.
Test [12] is described as follows: Inhibition of 20s proteasome subunit beta-1c in human Raji cells using BODIPY- epoxomicin by fluorescent densitometry. In kind it is cell-based.
The subject of test [13] is RPMI-8226. The experiment in a line: Ratio of IC50 for 20s proteasome subunit beta-1c to IC50 for proteasome subunit beta-1i in human RPMI8226 cells. In kind it is cell-based.
Test [14] is described as follows: Inhibition of proteasome subunit beta-5c/i in human RPMI8226 cells by fluorescent densitometry. In kind it is cell-based. The settings on record: rpmi-8226.
The subject of the next test is Raji. The experiment in a line: Ratio of IC50 for 20s proteasome subunit beta-1c to IC50 for proteasome subunit beta-1i in human Raji cells. In kind it is cell-based.
The nature of test [15]: Inhibition of proteasome subunit beta-2c/i in human RPMI8226 cells by fluorescent densitometry. The note with it: rpmi-8226. In kind it is cell-based.
Test [16] relates to RPMI-8226. The experiment in a line: Ratio of IC50 for proteasome subunit beta-1i to IC50 for proteasome subunit beta-5c/I in human RPMI8226 cells. The class given is cell-based.

Usually IC50 stands for the concentration that inhibits the measured activity by half. A low value points to higher potency. On to `CC1=C(C(=O)N[C@H](C)C(=O)N[C@@H](Cc2c[nH]c3ccccc23)C(=O)N[C@H](/C=C/S(C)(=O)=O)Cc2ccccc2)Cc2ccccc21`, for which the 50% inhibitory concentration (IC50) in test [1] is greater than 100 µM; in test [2], 25 µM; in test [3] it was greater than 100 µM; in test [4], greater than 100 µM; in test [5], 0.39 µM; in test [6] it was 0.053 µM. The IC50 in test [7], in test [8], in test [9], in [10], in test [11] and in test [12] was greater than 100 µM in each case.

As for `CC1=C(C(=O)N[C@H](C)C(=O)N[C@@H](Cc2c[nH]c3ccccc23)C(=O)N[C@@H](Cc2ccccc2)C(=O)[C@@]2(C)CO2)Cc2ccccc21`, the IC50 is 2.9 µM in test [1]; 0.227 µM in [2]; greater than 100 µM in test [3]; greater than 100 µM in [4]; 0.025 µM in test [5]; 0.0025 µM in test [6]. Moreover, the concentration for half-maximal inhibition (IC50) in [7] is 1.84 µM; in test [8], 3.5 µM; in [9], greater than 100 µM; in test [10] it was greater than 10 µM; in test [11], greater than 10 µM; in test [12], greater than 10 µM.

`CC1=C(C(=O)N[C@H](C)C(=O)N[C@@H](Cc2c[nH]c3ccccc23)C(=O)N[C@@H](CC2CCCCC2)C(=O)[C@@]2(C)CO2)Cc2ccccc21`: the IC50 in test [1] is greater than 100 µM; in test [2], 4.6 µM; in [3], greater than 100 µM; in [4] it was greater than 100 µM; in [5] it was 0.23 µM; in [6] it was 0.0083 µM. Further, the IC50 was 7.1 µM in [7]; 16 µM in test [8]; greater than 100 µM in test [9]; greater than 10 µM in test [10]; greater than 10 µM in test [11]; greater than 10 µM in test [12].

With `COc1ccc(C[C@H](NC(=O)[C@@H](C)NC(=O)C2=C(C)c3ccccc3C2)C(=O)N[C@@H](CC2CCCCC2)C(=O)[C@@]2(C)CO2)cc1`, the IC50 in test [1] is greater than 100 µM; in test [2] it was 5.5 µM; in test [3] it was greater than 100 µM; in [4], greater than 100 µM; in test [5], 0.37 µM; in [6], 0.011 µM. In addition, the IC50 in test [7] was greater than 10 µM; in test [8], greater than 100 µM; in test [9] it was greater than 100 µM; in [10] it was greater than 10 µM; in test [11], greater than 10 µM; in test [12], greater than 10 µM.

With `CCCC[C@H](NC(=O)[C@@H]1CC(F)(F)CN1C(=O)[C@H](C)NC(=O)CN=[N+]=[N-])C(=O)N[C@@H](CC1CCCCC1)C(=O)[C@@]1(C)CO1`, the values for the Ratio IC50 in the test with RPMI-8226 [13], in the test on Raji and in the test on RPMI-8226 [16] were 360, 252 and 500, respectively. Moreover, the IC50 is 0.095 µM in test [7]; 0.13 µM in test [8]; 47 µM in [9]; 65 µM in [14]; greater than 100 µM in [15]; greater than 100 µM in test [11]. For the same compound, the IC50 in test [12] was 24 µM.

Regarding `CCCC[C@H](NC(=O)[C@@H]1CCCN1C(=O)[C@H](C)NC(=O)CN=[N+]=[N-])C(=O)N[C@@H](CC(C)C)C(=O)[C@@]1(C)CO1`, the Ratio IC50 with RPMI-8226 [13] is 3; in the test on Raji, 2; in the test with RPMI-8226 [16], greater than 70. Moreover, the IC50 in test [7] is 0.045 µM; in test [8], 0.14 µM; in test [9] it was 0.37 µM; in test [14], greater than 10 µM; in [15], greater than 10 µM; in [12] it was 0.088 µM.

`C[C@@H](NC(=O)CN1CCOCC1)C(=O)N[C@@H](Cc1c[nH]c2ccccc12)C(=O)N[C@@H](CC1CCCCC1)C(=O)[C@@]1(C)CO1`: the IC50 in [1] was 2.9 µM; in test [2], 0.827 µM; in test [3] it was greater than 10 µM; in test [4], greater than 10 µM; in test [5], 0.059 µM; in test [6] it was 0.032 µM. The IC50 in [7] was greater than 10 µM; in [8], 6.2 µM; in [9] it was greater than 10 µM; in test [10], greater than 10 µM; in test [11] it was greater than 10 µM; in test [12], greater than 10 µM.
